In PMC4478806 (The FASEB Journal, 2015):
“And” between values parts separate entries of the source, which are not always exact repeats. Equal entries are not always repeated. Where two headings read alike, the source gives them in different places.

How the values were obtained:
CHO-CS cells = test: Association and dissociation of BODIPY-TMR-CGP in control CHO-CS cells (nonspecific binding); set-up: species or system Chinese hamster; settings: for koff(fast) / konobs: CHO-CS cells
Source text: Chinese hamster ovary (CHO)-K1 cells were used for all transient transfections. CHO-K1 cells stably expressing the secreted placental alkaline phosphatase reporter gene under the transcriptional control of a 6-cAMP response element promoter (CHO-CS cells) were used as a control, as appropriate. CHO-CS cell lines either expressing human wild-type β1-adrenoceptors (CHO-β1 cells; 1147 fmol/mg protein) ([6]) or human β1-adrenoceptors containing 11 amino acid mutations (G177V, L178I, V179I, C180L, T181M, A184I, I185V, A187G, V189T, L195Q, and W199Y that convert TM4 to the equivalent residues in the β2-adrenoceptor; CHO-β1TM4 cells) ([11]) were used. CHO-K1, CHO-CS, CHO-β1, and CHO-β1TM4 cells were grown at 37°C in CHO growth medium [DMEM/Ham's nutrient mixture F12 containing 10% (v/v) fetal calf serum and 2 mM L-glutamine] in a humidified 5% CO2/95% air atmosphere.
(§1) Live cell fluorescence imaging was performed on the Zeiss LSM510 laser scanning confocal microscope using a Zeiss Plan-Neofluar ×40 1.3 NA oil-immersion objective in conjunction with a temperature-controlled (37°C) perfusion system to allow the visualization and quantification of BODIPY-TMR-CGP dissociation kinetics under infinite dilution (ID) conditions in single living cells ([25]). Kinetic experiments were performed as described by May et al. ([25]). In brief, cells were grown to near confluence on 32 mm glass coverslips in 6-well plates 1 d prior to experimentation. On the day of experimentation, the coverslip was placed into a tightly closed imaging chamber on a heated (37°C) microscope stage, where it was connected to tubes to facilitate the flow of imaging buffer through the imaging chamber in the absence and presence of BODIPY-TMR-CGP and/or unlabeled ligands at a constant flow rate of ≥4 ml/min.
(§2) For association and dissociation kinetic experiments of 10–100 nM BODIPY-TMR-CGP in CHO-β1 and CHO-CS cells, the cells were exposed to imaging buffer only (30 s baseline fluorescence recording), then BODIPY-TMR-CGP (4.5 min association), and followed again by imaging buffer only (4.5 min dissociation). BODIPY-TMR-CGP was excited using a 543 nm helium-neon laser with emission collected through a 565 nm long-pass filter every 3 s throughout each experiment (512 × 512 pixels, averaging at 2 frames). The pinhole diameter (1 airy unit), laser power (2%), offset, and gain remained constant between the 3 BODIPY-TMR-CGP concentrations and the 2 cell lines used. Membrane-associated BODIPY-TMR-CGP fluorescence was measured by drawing regions of interest (ROIs) around the membranes of 10 single cells of each imaged coverslip, and changes in the average pixel intensity values for each ROI over time were analyzed to obtain association and dissociation rates for each experiment.
(§3) GraphPad Prism 5.0 (GraphPad Software, San Diego, CA, USA) was used to fit all data presented in this study. Association kinetic data were fitted using the following monoexponential association equation: [drawing 1] where Y0 is the level of BODIPY-TMR-CGP binding at time t = 0 (i.e., baseline fluorescence), Plateau is the level of BODIPY-TMR-CGP binding at infinite time, and konobs is the rate of observed association.
The koff is the dissociation rate of BODIPY-TMR-CGP. […]

human β1-adrenoceptor [1] = target: T1, human β1-adrenoceptor (Homo sapiens, UniProt P08588); test: 3 nM BODIPY-TMR-CGP kinetics and influence of unlabeled ligands on its dissociation rate in CHO-β1 cells under infinite dilution; assay type: binding
T1 construct: expressed in transfected cells
T1 sequence (P08588 whole entry): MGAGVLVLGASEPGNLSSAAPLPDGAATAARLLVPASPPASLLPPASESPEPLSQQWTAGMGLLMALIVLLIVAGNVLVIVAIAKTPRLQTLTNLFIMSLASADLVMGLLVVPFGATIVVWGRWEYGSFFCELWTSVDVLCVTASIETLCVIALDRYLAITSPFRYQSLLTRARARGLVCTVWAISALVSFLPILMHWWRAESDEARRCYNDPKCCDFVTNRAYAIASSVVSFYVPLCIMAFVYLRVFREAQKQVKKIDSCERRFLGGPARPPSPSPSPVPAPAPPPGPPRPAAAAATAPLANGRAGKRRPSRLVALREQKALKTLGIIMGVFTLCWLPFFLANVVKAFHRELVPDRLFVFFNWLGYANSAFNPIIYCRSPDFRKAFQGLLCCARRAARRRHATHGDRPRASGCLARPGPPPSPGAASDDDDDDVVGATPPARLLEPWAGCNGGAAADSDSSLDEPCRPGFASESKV

human β1-adrenoceptor [2] = target: T1, human β1-adrenoceptor; test: Association and dissociation kinetics of 10, 30 and 100 nM BODIPY-TMR-CGP in CHO-β1 cells (confocal perfusion system, single living cells); assay type: binding; settings: for pKD: from kon and koff(slow); for koff(fast): nonspecific component constrained to average CHO-CS dissociation rate
Description: as §1, §2, §3
The koff is the dissociation rate of BODIPY-TMR-CGP. Where a level of nonspecific binding >10% of total binding was observed, the dissociation kinetic data were fitted to a 2-phase exponential decay function [drawing 5] where Plateau and t are as defined above, and Spanfast and Spanslow represent the proportion of Y0-Plateau accounted for by the fast (koff(fast)) and slow (koff(slow)) dissociation rate, respectively. Within this analysis, koff(fast) and Plateau was constrained to the average rate of dissociation and the average Plateau (in %) reached by BODIPY-TMR-CGP in control CHO-CS cells (i.e., cell not expressing the receptor of interest to determine the nonspecific BODIPY-TMR-CGP binding component).

[3] = target: T2, human β1-adrenoceptors containing 11 amino acid mutations that convert TM4 to the β2-adrenoceptor residues (CHO-β1TM4 cells) (Homo sapiens, UniProt P08588, A184I/A187G/C180L/G177V/I185V/L178I/L195Q/T181M/V179I/V189T/W199Y); test: 3 nM BODIPY-TMR-CGP dissociation in absence and presence of unlabeled ligands in CHO-β1TM4 cells; assay type: binding; settings: infinite dilution, absence of unlabeled ligands
T2 construct: expressed in transfected cells
T2 sequence (P08588 whole entry G177V/L178I/V179I/C180L/T181M/A184I/I185V/A187G/V189T/L195Q/W199Y): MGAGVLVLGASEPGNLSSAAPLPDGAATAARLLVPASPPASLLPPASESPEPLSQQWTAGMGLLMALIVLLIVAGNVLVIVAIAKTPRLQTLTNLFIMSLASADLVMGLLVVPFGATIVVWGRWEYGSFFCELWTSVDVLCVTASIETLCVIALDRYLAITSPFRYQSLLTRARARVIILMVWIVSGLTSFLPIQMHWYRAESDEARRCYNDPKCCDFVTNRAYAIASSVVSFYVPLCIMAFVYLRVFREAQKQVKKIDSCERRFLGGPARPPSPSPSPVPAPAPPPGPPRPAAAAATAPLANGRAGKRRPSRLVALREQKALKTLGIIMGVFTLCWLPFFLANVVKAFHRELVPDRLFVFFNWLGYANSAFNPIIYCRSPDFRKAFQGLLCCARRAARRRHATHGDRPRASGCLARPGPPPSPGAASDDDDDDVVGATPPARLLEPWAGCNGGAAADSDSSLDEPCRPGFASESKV
Description: Chinese hamster ovary (CHO)-K1 cells were used for all transient transfections. CHO-K1 cells stably expressing the secreted placental alkaline phosphatase reporter gene under the transcriptional control of a 6-cAMP response element promoter (CHO-CS cells) were used as a control, as appropriate. […] In BiFC experiments, membrane-associated BODIPY-TMR-CGP fluorescence was measured by drawing ROIs around membranes of cells that were identified to express BiFC-constrained homodimers by examination of the YFP fluorescence. […] The koff is the dissociation rate of BODIPY-TMR-CGP. […] Within this analysis, koff(fast) and Plateau was constrained to the average rate of dissociation and the average Plateau (in %) reached by BODIPY-TMR-CGP in control CHO-CS cells (i.e., cell not expressing the receptor of interest to determine the nonspecific BODIPY-TMR-CGP binding component).

human β1-adrenoceptor [4] = target: T1, human β1-adrenoceptor; settings: cited from earlier work
[5] = target: T3, SNAP-β1D138A β1-adrenoceptor (Homo sapiens, UniProt P08588, D138A); test: Confocal imaging of 3 nM BODIPY-TMR-CGP binding to SNAP-tagged D138A β1-adrenoceptor in CHO-K1 cells; settings: CHO-K1 cells transiently transfected with SNAP-β1D138A, 10 min
T3 construct: expressed in transfected cells; host or cells: CHO-K1 cells, transient transfection (pcDNA3.1)
T3 sequence (P08588 whole entry D138A): as the sequence (P08588 whole entry) above, with D138A counted along it
Source text: The β1-yellow fluorescent protein (YFP)N and β1-YFPC receptor constructs were generated by fusing either the N-terminal fragment of YFP (YFPN; amino acids 1–155) or the C-terminal fragment of YFP (YFPC; amino acids 156–239) to the C-terminal end of the full-length wild-type human β1-adrenoceptor. The SNAP-β1 construct was generated by fusing the SNAP-tag (New England Biolabs, Ipswich, MA, USA) to the N-terminal end of the wild-type human β1-adrenoceptor. The D138A mutation ([7]) was introduced into the β1-YFPC and the SNAP-β1 sequence using the QuikChange site-directed mutagenesis kit (Agilent Technologies, Cheshire, United Kingdom). All sequences were confirmed by DNA sequencing. All receptor constructs were subcloned into pcDNA3.1 vectors.
Confocal microscopy was performed using a Zeiss LSM710 laser scanning microscope with a ×40 1.3 NA oil immersion lens. CHO-K1 cells were grown to 70% confluence in 8-well Labtek borosilicate chambered-cover glasses (Nalgene Nunc International, Fisher Scientific) and transiently transfected with SNAP-β1 or SNAP-β1D138A recombinant DNA using Lipofectamine 2000 and Opti-MEM medium according to the manufacturer’s instructions. […]

[6] = target: T4, β1YFPN/β1YFPC BiFC-constrained β1-adrenoceptor homodimers (Homo sapiens, UniProt P08588); test: 3 nM BODIPY-TMR-CGP dissociation at BiFC-constrained wild-type β1-adrenoceptor homodimers in CHO-K1 cells; assay type: binding; settings: infinite dilution, absence of unlabeled ligands
T4 construct: to the C-terminal end of the full-length wild-type human β1-adrenoceptor; expressed in transfected cells; host or cells: CHO-K1 cells, transient co-transfection (pcDNA3.1)
T4 sequence (P08588 whole entry): as the sequence (P08588 whole entry) above
T4 sequence (P08588 whole entry): as above
Source text: (§4) The SNAP-β1 construct was generated by fusing the SNAP-tag (New England Biolabs, Ipswich, MA, USA) to the N-terminal end of the wild-type human β1-adrenoceptor. The […] mutation ([7]) was introduced into the β1-YFPC and the SNAP-β1 sequence using the QuikChange site-directed mutagenesis kit (Agilent Technologies, Cheshire, United Kingdom). All sequences were confirmed by DNA sequencing. All receptor constructs were subcloned into pcDNA3.1 vectors. In bimolecular fluorescence complementation (BiFC) experiments, CHO-K1 cells were seeded onto coverslips on day 1 and transiently transfected with YFPN- and YFPC-tagged β1-adrenoceptor recombinant DNA (750 ng total) using Lipofectamine 2000 and Opti-MEM medium according to the manufacturer's instructions on day 2. […] In BiFC experiments, membrane-associated BODIPY-TMR-CGP fluorescence was measured by drawing ROIs around membranes of cells that were identified to express BiFC-constrained homodimers by examination of the YFP fluorescence. […] The koff is the dissociation rate of BODIPY-TMR-CGP. […] Within this analysis, koff(fast) and Plateau was constrained to the average rate of dissociation and the average Plateau (in %) reached by BODIPY-TMR-CGP in control CHO-CS cells (i.e., cell not expressing the receptor of interest to determine the nonspecific BODIPY-TMR-CGP binding component).

[7] = target: T5, β1YFPN/β1D138AYFPC BiFC-constrained β1-adrenoceptor homodimers (Homo sapiens, UniProt P08588); test: 3 nM BODIPY-TMR-CGP dissociation at BiFC-constrained wild-type/nonligand-binding β1-adrenoceptor homodimers in CHO-K1 cells; settings: infinite dilution, absence of unlabeled ligands
T5 construct: to the C-terminal end of the full-length wild-type human β1-adrenoceptor; expressed in transfected cells; host or cells: CHO-K1 cells, transient co-transfection (pcDNA3.1)
T5 sequence (P08588 whole entry): as above
T5 sequence (P08588 whole entry D138A partner): as the sequence (P08588 whole entry) above, with D138A counted along it
Source text: as §4

[8] = 3 nM BODIPY-TMR-CGP, global fit of association and dissociation traces
[9] = 3 nM BODIPY-TMR-CGP, based on affinity from functional assays

Question: What does the source list for “bordifluoropyrromethane-tetramethylrhodamine-(±)CGP 12177 [BODIPY-TMR-CGP]”?
Answer: koff(fast) (CHO-CS cells; 30 nM BODIPY-TMR-CGP): 0.041 ± 0.008 s⁻¹; konobs (CHO-CS cells; 30 nM BODIPY-TMR-CGP): 1.40 ± 0.26 min⁻¹; koff(fast) (CHO-CS cells; 100 nM BODIPY-TMR-CGP): 0.0412 ± 0.00217 s⁻¹; konobs (CHO-CS cells; 100 nM BODIPY-TMR-CGP): 1.62 ± 0.13 min⁻¹; average dissociation rate obtained in CHO-CS cells (CHO-CS cells; average over BODIPY-TMR-CGP concentrations, used as constraint for koff(fast)): 2.47 min⁻¹; association rate constant (kon) (human β1-adrenoceptor [1]; [8]): 5.27 ± 0.53 × 10^7 M^−1⋅min^−1; dissociation rate (koff) (human β1-adrenoceptor [1]; [8]): 0.0013 ± 0.00017 s⁻¹; pKD (human β1-adrenoceptor [1]; [8]): 8.83 ± 0.06; koff of 3 nM BODIPY-TMR-CGP (human β1-adrenoceptor [1]; infinite dilution, absence of unlabeled ligands, 1-phase dissociation): 0.0015 ± 0.00017 s⁻¹ and 0.0015 s⁻¹; kon (human β1-adrenoceptor [2]; 10 nM BODIPY-TMR-CGP): 5.29 ± 0.79 ×10^7 M^−1⋅min^−1; konobs (human β1-adrenoceptor [2]; 10 nM BODIPY-TMR-CGP): 0.63 ± 0.08 min⁻¹; pKD (human β1-adrenoceptor [2]; 10 nM BODIPY-TMR-CGP): 8.71 ± 0.05; koff(slow) (human β1-adrenoceptor [2]; 10 nM BODIPY-TMR-CGP, monoexponential dissociation): 0.09 ± 0.01 min⁻¹; kon (human β1-adrenoceptor [2]; 30 nM BODIPY-TMR-CGP): 5.17 ± 0.28 ×10^7 M^−1⋅min^−1; konobs (human β1-adrenoceptor [2]; 30 nM BODIPY-TMR-CGP): 1.64 ± 0.08 min⁻¹; koff(slow) (human β1-adrenoceptor [2]; 30 nM BODIPY-TMR-CGP, 2-phase decay): 0.09 ± 0.01 min⁻¹; pKD (human β1-adrenoceptor [2]; 30 nM BODIPY-TMR-CGP): 8.77 ± 0.08; koff(fast) (human β1-adrenoceptor [2]; 30 nM BODIPY-TMR-CGP): 0.0412 s⁻¹; kon (human β1-adrenoceptor [2]; 100 nM BODIPY-TMR-CGP): 2.94 ± 0.12^*^,^# ×10^7 M^−1⋅min^−1; konobs (human β1-adrenoceptor [2]; 100 nM BODIPY-TMR-CGP): 3.08 ± 0.11 min^−1 and 3.08 ± 0.11^*^,^# min^−1; koff(slow) (human β1-adrenoceptor [2]; 100 nM BODIPY-TMR-CGP, 2-phase decay): 0.14 ± 0.02^*^,^# min^−1; pKD (human β1-adrenoceptor [2]; 100 nM BODIPY-TMR-CGP): 8.32 ± 0.06^*^,^#; koff(fast) (human β1-adrenoceptor [2]; 100 nM BODIPY-TMR-CGP): 0.0412 s⁻¹; koff of 3 nM BODIPY-TMR-CGP [3]: 0.0011 ± 8.3e-05 s⁻¹ and 0.0012 ± 0.00033 s⁻¹; occupancy of the high-affinity β1-adrenoceptor conformation (human β1-adrenoceptor [4]; [9]): ~86%; occupancy of the secondary low-affinity β1-adrenoceptor conformation (human β1-adrenoceptor [4]; [9]): ~3%; Kd (human β1-adrenoceptor [4]; functional studies, read-out: affinity value for the high-affinity (orthosteric) β1-adrenoceptor conformation): 0.0006 µM; Kd (human β1-adrenoceptor [4]; read-out: affinity value for the low-affinity β1-adrenoceptor conformation): 0.087 µM; binding of 3 nM BODIPY-TMR-CGP (membrane fluorescence) [5]: no binding; koff of 3 nM BODIPY-TMR-CGP [6]: 0.00033 ± 0.00017 s⁻¹ and 0.00033 s⁻¹; koff of 3 nM BODIPY-TMR-CGP [7]: 0.0009 ± 0.000183 s⁻¹ and 0.00083 ± 0.00017 s⁻¹
